US10850134B2, “Method and kit for home controlled ovarian stimulation for in vitro fertilization” (priority 2019, dated 2020)
Where “and” joins values, the source holds several entries; their conditions need not be identical. Equal values may be shown once.

Assays:
[1] = tested on: Luteinizing hormone (LH) blood level; assay: LH blood level in patients on home controlled ovarian hyperstimulation method with vaginal elagolix (Example 2); assay type: in vivo, female patients; details: for Luteinizing hormone (LH) blood level: 50 mg elagolix vaginal suppository days 9 and 11
Description: Five female patients were treated with the controlled ovarian hyperstimulation method described herein using the elagolix pill (vaginal route) instead of the conventional Ganirelex/Cetrotide injectables. On day 3 of the patient's menstrual cycle, the patient orally took 100 mg (two 50 mg oral tablets) of clomiphene citrate and 5 mg (two 2.5 mg oral tablets) of letrozole. The patient then took the same oral dosages of clomiphene citrate and letrozole daily on each of days 4-7 of the patient's menstrual cycle. On day 8 of the patient's menstrual cycle, the patient orally took only 100 mg (two 50 mg oral tablets) of clomiphene citrate, and stopped the letrozole. On day 9 of the menstrual cycle, the patient orally took 100 mg (two 50 mg oral tablets) of clomiphene citrate and inserted vaginally a 50 mg tablet of elagolix as a vaginal suppository. On day 10 of the menstrual cycle, the patient orally took only 100 mg (two 50 mg oral tablets) of clomiphene citrate. On day 11 of the menstrual cycle, the patient orally took 100 mg (two 50 mg oral tablets) of clomiphene citrate and inserted vaginally a 50 mg tablet of elagolix as a vaginal suppository. Also, on day 11, the patient took a home ovulation test in the morning (9:00 am) and in the evening (9:00 pm). For the patients whose ovulation tests were not positive, then on days 12 and 13, the patient took 2 doses of leuprorelin as a nasal spray (1:40 dilution in saline) as follows. On day 12, after taking a home ovulation test at 9:00 am, 2 puffs (sprays) of the nasal spray were self-administered by the patient per nostril. After 12 hours of waiting, at 9:00 pm the patient took a home urine ovulation test and then self-administered 2 more puffs (sprays) of the nasal spray per nostril. On day 13, the patient repeated the procedure of day 12. Luteinizing hormone (LH) blood level was 7.0 mIU/mL on day 11 and dropped to 1.0 mIU/mL on day 13.
(§1) Table 2 below provides a comparison of the efficacy of conventional Ganirelex/Cetrotide injectables treatment for IVF in the five representative patients from Example 1 with the home controlled ovarian hyperstimulation method described herein in the five representative patients from Example 2.

[2] = tested on: Luteinizing hormone (LH) blood level; assay: LH blood level in patients on GnRH antagonist protocol with ganirelix acetate injections (Example 1); assay type: in vivo, female patients
Description: Five female patients were treated with a GnRH antagonist protocol requiring injections of medications.
One patient, patient no. 1, was injected with 150 Units of FSH on days 3 to 12; half a syringe of 150 mcg/0.5 mL of ganirelix acetate on days 11 and 12; and 50 mg of clomiphene citrate on days 3 to 12; and 2.5 mg of letrozole on days 3 to 7. Luteinizing hormone (LH) blood level was 4.3 mIU/mL on day 10 and dropped to 2 mIU/mL on day 12.
A second patient, patient no. 2, was injected with 75 Units of FSH on days 4 to 12 and 150 Units on day 13; half a syringe of 150 mcg/0.5 mL of ganirelix acetate on days 11 to 13; 50 mg of clomiphene citrate on days 10 to 12, and 2.5 mg of letrozole on days 3 to 7. Luteinizing hormone (LH) blood level was 12.0 mIU/mL on day 11 and dropped to 6.3 mIU/mL on day 13.
Three patients, numbered 3 to 5, were injected with 75, 150 and 225 Units of FSH, respectively, on days 4 to 12 and one third a syringe of 150 mcg/0.5 mL of ganirelix acetate on days 11 to 13. Patient no. 3 received 50 mg of clomiphene citrate on days 4 to 12, and 2.5 mg of letrozole on days 4 to 8. Patient no. 4 received 100 mg of clomiphene citrate and 2.5 mg of letrozole on days 4 to 8, and 50 mg of clomiphene citrate on days 9 to 11. Patient no. 5 received no clomiphene citrate or letrozole. Luteinizing hormone (LH) blood level was 12.0, 18.0 and 14.6 mIU/mL, respectively, on day 10 and dropped to 4.9, 16.0 and 14.1 mIU/mL, respectively, on day 12.
as §1

[3] = Example 2, vaginal elagolix suppository 50 mg days 9 and 11, individual patients 1-5, blood
[4] = Example 1, conventional injectables, individual patients 1-5, blood

## COc1cccc(-c2c(C)n(Cc3c(F)cccc3C(F)(F)F)c(=O)n(C[C@H](NCCCC(=O)O)c3ccccc3)c2=O)c1F [Vaginal elagolix suppository, elagolix]
[1]; Example 2, vaginal elagolix suppository 50 mg days 9 and 11, individual patients 1-5
  % Drop in blood LH hormone level: 85.7% and 65.9% and 68.6% and 79.3% and 88.6%
[1]; [3]
  LH blood hormone level (mIU/mL) AFTER medication intake: 1.0 mIU/mL and 5.7 mIU/mL and 3.2 mIU/mL and 1.7 mIU/mL and 0.8 mIU/mL
  LH blood hormone level (mIU/mL) BEFORE medication intake: 7.0 mIU/mL and 16.7 mIU/mL and 10.2 mIU/mL and 8.2 mIU/mL and 7 mIU/mL
[1]; day 11
  Luteinizing hormone (LH) blood level: 7.0 mIU/mL
[1]; day 11 to day 13
  drop in LH blood hormone levels: 85.7%
[1]; day 13
  Luteinizing hormone (LH) blood level: 1.0 mIU/mL

## ganirelix acetate
[2]; Example 1, conventional injectables, individual patients 1-5
  % Drop in blood LH hormone level: 53.5% and 47.5% and 59.2% and 11.1% and 3.4%
[2]; [4]
  LH blood hormone level (mIU/mL) AFTER medication intake: 2.0 mIU/mL and 6.3 mIU/mL and 4.9 mIU/mL and 16.0 mIU/mL and 14.1 mIU/mL
  LH blood hormone level (mIU/mL) BEFORE medication intake: 4.3 mIU/mL and 12.0 mIU/mL (2×) and 18.0 mIU/mL and 14.6 mIU/mL
[2]; patient no. 1, day 10, half a syringe ganirelix acetate days 11 and 12, 150 Units FSH
  Luteinizing hormone (LH) blood level: 4.3 mIU/mL
[2]; patient no. 1, day 10 to day 12
  drop in LH blood hormone levels: 53.5%
[2]; patient no. 1, day 12, half a syringe ganirelix acetate days 11 and 12, 150 Units FSH
  Luteinizing hormone (LH) blood level: 2 mIU/mL
[2]; patient no. 2, day 11, half a syringe ganirelix acetate days 11 to 13, 75 Units FSH
  Luteinizing hormone (LH) blood level: 12.0 mIU/mL
[2]; patient no. 2, day 11 to day 13
  drop in LH blood hormone levels: 47.5%
[2]; patient no. 2, day 13, half a syringe ganirelix acetate days 11 to 13, 75 Units FSH
  Luteinizing hormone (LH) blood level: 6.3 mIU/mL
[2]; patient no. 3, day 10, one third a syringe ganirelix acetate days 11 to 13, 75 Units FSH
  Luteinizing hormone (LH) blood level: 12.0 mIU/mL
[2]; patient no. 3, day 10 to day 12
  drop in LH blood hormone levels: 59.25
[2]; patient no. 3, day 12, one third a syringe ganirelix acetate days 11 to 13, 75 Units FSH
  Luteinizing hormone (LH) blood level: 4.9 mIU/mL
[2]; patient no. 4, day 10, one third a syringe ganirelix acetate days 11 to 13, 150 Units FSH
  Luteinizing hormone (LH) blood level: 18.0 mIU/mL
[2]; patient no. 4, day 10 to day 12
  drop in LH blood hormone levels: 11.1%
[2]; patient no. 4, day 12, one third a syringe ganirelix acetate days 11 to 13, 150 Units FSH
  Luteinizing hormone (LH) blood level: 16.0 mIU/mL
[2]; patient no. 5, day 10, one third a syringe ganirelix acetate days 11 to 13, 225 Units FSH, no clomiphene citrate or letrozole
  Luteinizing hormone (LH) blood level: 14.6 mIU/mL
[2]; patient no. 5, day 10 to day 12
  drop in LH blood hormone levels: 3.4%
[2]; patient no. 5, day 12, one third a syringe ganirelix acetate days 11 to 13, 225 Units FSH, no clomiphene citrate or letrozole
  Luteinizing hormone (LH) blood level: 14.1 mIU/mL
